Two compounds from PMC8901637, “Deprogramming metabolism in pancreatic cancer with a bi-functional GPR55 inhibitor and biased β2 adrenergic agonist” (Scientific Reports, 2022) can be followed below.

The target in test [1] is T1, GPR55 (Homo sapiens, UniProt Q9Y2T6).
T1 construct: 3 × HA-tagged human GPR55 stably expressed in HEK293 cells
In words: inhibition of uptake of the fluorescent GPR55 agonist T1117 in hGPR55-HEK293 cells; positive control. It is filed as cell-based.

In test [2] the target is T1, GPR55. The test is described as follows: inhibition of uptake of the fluorescent GPR55 agonist T1117 in hGPR55-HEK293 cells (live-cell imaging). It is filed as cell-based.

T1 sequence (Q9Y2T6 whole entry): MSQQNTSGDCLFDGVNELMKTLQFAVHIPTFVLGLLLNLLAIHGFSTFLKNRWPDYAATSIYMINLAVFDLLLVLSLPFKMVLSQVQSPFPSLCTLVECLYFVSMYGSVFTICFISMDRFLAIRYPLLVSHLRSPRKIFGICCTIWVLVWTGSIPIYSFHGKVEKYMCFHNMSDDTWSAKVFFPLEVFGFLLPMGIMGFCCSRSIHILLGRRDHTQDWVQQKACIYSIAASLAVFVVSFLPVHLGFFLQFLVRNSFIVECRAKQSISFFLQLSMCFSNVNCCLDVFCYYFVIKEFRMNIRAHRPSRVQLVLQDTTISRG

Consider `COc1ccc(C[C@@H](C)NC[C@H](O)c2cc(O)cc(O)c2)c2ccccc12` [(R,R′)-MNF], for which, on GPR55 [1], the “% reduction in T1117 incorporation” value was ~ 70 % reduction in T1117 incorporation.
In the case of `COc1ccc(C[C@H](C)NC[C@H](O)c2cc(O)cc(O)c2)c2ccccc12` [(R,S′)-MNF, (R,S′)-4′-methoxy-1-naphthylfenoterol], the IC50 (in general, the point on the concentration scale where inhibition reaches its midpoint) at GPR55 [2] worked out at 1.3 µM.
